Results taken from PMC6450719 (Biochimica et biophysica acta. Proteins and proteomics, 2018).

Molecular target: T1, human islet amyloid polypeptide (hIAPP, amylin) (Homo sapiens, UniProt P10997)
T1 sequence (P10997 34-70 limits assumed): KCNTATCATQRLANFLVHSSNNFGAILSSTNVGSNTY
Assay: ITC
Assay type: binding

Kd: ~1100 nM
Structure (SMILES): O=C(O[C@@H]1Cc2c(O)cc(O)cc2O[C@@H]1c1cc(O)c(O)c(O)c1)c1cc(O)c(O)c(O)c1 [EGCG]
